*1 amine or outer side, *2 acyl side, *3 side chain or, on linkers, in order; H or OH if unused. Where a SMILES comes first, the peptide text is derived from it. Bridges are numbered along the chain shown (N, C = ends). The star is where a group is joined. C20 diacid = O=C(O)CCCCCCCCCCCCCCCCCCC(=O)*; γGlu = O=C(O)[C@H](CCC(=O)[*:2])N[*:1]; AEEA = NCCOCCOCC(=O)O

The target of this experiment is T1, Amylin 3(a) receptor (human calcitonin receptor (CTa) and RAMP-3) (Homo sapiens, UniProt O60896+P30988).
T1 construct: expressed in transfected cells; host or cells: BHK570 cells, stably transfected with a CRE-luciferase reporter
T1 sequence (O60896 24-148): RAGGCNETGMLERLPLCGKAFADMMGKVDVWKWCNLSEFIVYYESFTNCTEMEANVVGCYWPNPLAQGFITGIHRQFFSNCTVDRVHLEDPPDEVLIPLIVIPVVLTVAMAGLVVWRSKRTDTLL
T1 sequence (P30988 25-474): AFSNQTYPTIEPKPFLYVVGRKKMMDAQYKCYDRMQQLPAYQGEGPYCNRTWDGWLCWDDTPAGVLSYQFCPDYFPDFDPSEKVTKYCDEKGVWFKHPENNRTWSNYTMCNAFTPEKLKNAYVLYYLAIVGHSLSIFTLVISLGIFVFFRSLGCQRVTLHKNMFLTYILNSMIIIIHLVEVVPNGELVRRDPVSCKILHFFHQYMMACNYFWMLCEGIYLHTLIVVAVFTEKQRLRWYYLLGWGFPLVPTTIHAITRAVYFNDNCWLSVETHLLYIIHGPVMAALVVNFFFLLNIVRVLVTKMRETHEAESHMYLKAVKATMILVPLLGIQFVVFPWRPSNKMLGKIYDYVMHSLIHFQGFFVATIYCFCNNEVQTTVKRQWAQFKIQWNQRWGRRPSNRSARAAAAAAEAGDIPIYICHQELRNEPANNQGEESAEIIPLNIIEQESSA
Description: Luciferase assay (III), BHK Amylin 3(a)//CRE-luc cells. The experiment is classed as cell-based. Conditions: BHK cells with Amylin 3(a) receptor and CRE luciferase reporter, 4 hours incubation; read-out: Potency Luciferase. Summed up:
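Read-out is CRE-driven luciferase luminescence, taken 30 min after LucLite addition at room temperature. Compounds were incubated 4 h at 37° C in assay medium (10% FBS, 10 mM Hepes, pH 7,4). The cell line is BHK570 co-transfected with human calcitonin receptor CTa and RAMP-3, seeded overnight before use.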

Take `CC[C@H](C)[C@H](NC(=O)[C@@H]1CCCN1C(=O)CNC(=O)[C@H](Cc1ccccc1)NC(=O)[C@H](CC(N)=O)NC(=O)[C@H](CC(N)=O)NC(=O)[C@H](CO)NC(=O)[C@H](CO)NC(=O)[C@H](Cc1c[nH]cn1)NC(=O)[C@H](Cc1c[nH]cn1)NC(=O)[C@H](CC(C)C)NC(=O)[C@H](Cc1ccccc1)NC(=O)[C@H](CC(N)=O)NC(=O)[C@H](C)NC(=O)[C@H](CC(C)C)NC(=O)[C@H](CCCNC(=N)N)NC(=O)[C@H](CCC(N)=O)NC(=O)[C@@H](NC(=O)[C@H](C)NC(=O)[C@@H]1CSSC[C@H](NC(=O)COCCOCCNC(=O)CC[C@H](NC(=O)CCCCCCCCCCCCCCCCCCC(=O)O)C(=O)O)C(=O)N[C@@H](CC(N)=O)C(=O)N[C@@H]([C@@H](C)O)C(=O)N[C@@H](C)C(=O)N[C@@H]([C@@H](C)O)C(=O)N1)[C@@H](C)O)C(=O)N[C@@H](CC(C)C)C(=O)N1CCC[C@H]1C(=O)N1CCC[C@H]1C(=O)N[C@H](C(=O)N[C@@H](CC(N)=O)C(=O)N[C@H](C(=O)NCC(=O)N[C@@H](CO)C(=O)N[C@@H](CC(N)=O)C(=O)N[C@H](C(=O)N[C@@H](Cc1ccc(O)cc1)C(N)=O)[C@@H](C)O)C(C)C)[C@@H](C)O` [Example 16, N-alpha-[2-(2-{2-[4-(S)-Carboxy-4-(19-carboxynonadecanoylamino)butyrylamino]ethoxy}ethoxy)acetyl]-[His17]-pramlintide (2-37)] ({C20 diacid-γGlu-AEEA}-CNTATCATQRLANFLHHSSNNFGPILPPTNVGSNTY-NH2; disulfide 1-6): the EC50 was 0.1 nM.
The result for `CC[C@H](C)[C@H](NC(=O)[C@@H]1CCCN1C(=O)CNC(=O)[C@H](Cc1ccccc1)NC(=O)[C@H](CC(N)=O)NC(=O)[C@H](CC(N)=O)NC(=O)[C@H](CO)NC(=O)[C@H](CO)NC(=O)[C@H](Cc1c[nH]cn1)NC(=O)[C@H](Cc1c[nH]cn1)NC(=O)[C@H](CC(C)C)NC(=O)[C@H](Cc1ccccc1)NC(=O)[C@H](CC(N)=O)NC(=O)[C@H](C)NC(=O)[C@H](CC(C)C)NC(=O)[C@H](CCCNC(=N)N)NC(=O)[C@H](CCC(N)=O)NC(=O)[C@@H](NC(=O)[C@H](C)NC(=O)[C@@H]1CSSC[C@H](NC(=O)[C@H](CCCCN)NC(=O)[C@H](CCCNC(=N)N)NC(=O)CC[C@H](NC(=O)CCCCCCCCCCCCCCCCCCC(=O)O)C(=O)O)C(=O)N[C@@H](CC(N)=O)C(=O)N[C@@H]([C@@H](C)O)C(=O)N[C@@H](C)C(=O)N[C@@H]([C@@H](C)O)C(=O)N1)[C@@H](C)O)C(=O)N[C@@H](CC(C)C)C(=O)N1CCC[C@H]1C(=O)N1CCC[C@H]1C(=O)N[C@H](C(=O)N[C@@H](CC(N)=O)C(=O)N[C@H](C(=O)NCC(=O)N[C@@H](CO)C(=O)N[C@@H](CC(N)=O)C(=O)N[C@H](C(=O)N[C@@H](Cc1ccc(O)cc1)C(N)=O)[C@@H](C)O)C(C)C)[C@@H](C)O` [Example 17, N-alpha-[(S)-4-Carboxy-4-(19-carboxynonadecanoylamino)butyryl]-Arg-[His17]-pramlintide] ({C20 diacid-γGlu}-RKCNTATCATQRLANFLHHSSNNFGPILPPTNVGSNTY-NH2; disulfide 3-8) reads 0.08 nM.
As to `CC[C@H](C)[C@H](NC(=O)[C@@H]1CCCN1C(=O)CNC(=O)[C@H](Cc1ccccc1)NC(=O)[C@H](CC(N)=O)NC(=O)[C@H](CC(N)=O)NC(=O)[C@H](CO)NC(=O)[C@H](CO)NC(=O)[C@H](Cc1c[nH]cn1)NC(=O)CNC(=O)[C@H](CC(C)C)NC(=O)[C@H](Cc1ccccc1)NC(=O)[C@H](CC(N)=O)NC(=O)[C@H](C)NC(=O)[C@H](CC(C)C)NC(=O)[C@H](CCCNC(=N)N)NC(=O)[C@H](CCC(N)=O)NC(=O)[C@@H](NC(=O)[C@H](C)NC(=O)[C@@H]1CSSC[C@H](NC(=O)[C@H](CCCCN)NC(=O)[C@H](CCCNC(=N)N)NC(=O)CC[C@H](NC(=O)CCCCCCCCCCCCCCCCCCC(=O)O)C(=O)O)C(=O)N[C@@H](CC(N)=O)C(=O)N[C@@H]([C@@H](C)O)C(=O)N[C@@H](C)C(=O)N[C@@H]([C@@H](C)O)C(=O)N1)[C@@H](C)O)C(=O)N[C@@H](CC(C)C)C(=O)N1CCC[C@H]1C(=O)N1CCC[C@H]1C(=O)N[C@H](C(=O)N[C@@H](CC(N)=O)C(=O)N[C@H](C(=O)NCC(=O)N[C@@H](CO)C(=O)N[C@@H](CC(N)=O)C(=O)N[C@H](C(=O)N[C@@H](Cc1ccc(O)cc1)C(N)=O)[C@@H](C)O)C(C)C)[C@@H](C)O` [Example 18, N-alpha-[(S)-4-Carboxy-4-(19-carboxynonadecanoylamino)butyryl]-Arg-[Gly17]-pramlintide] ({C20 diacid-γGlu}-RKCNTATCATQRLANFLGHSSNNFGPILPPTNVGSNTY-NH2; disulfide 3-8), the EC50 amounted to 0.1 nM.
The figure for `CC[C@H](C)[C@H](NC(=O)[C@@H]1CCCN1C(=O)CNC(=O)[C@H](Cc1ccccc1)NC(=O)[C@H](CC(N)=O)NC(=O)[C@H](CC(N)=O)NC(=O)[C@H](CO)NC(=O)[C@H](CO)NC(=O)[C@H](Cc1c[nH]cn1)NC(=O)[C@H](C)NC(=O)[C@H](CC(C)C)NC(=O)[C@H](Cc1ccccc1)NC(=O)[C@H](CC(N)=O)NC(=O)[C@H](C)NC(=O)[C@H](CC(C)C)NC(=O)[C@H](CCCNC(=N)N)NC(=O)[C@H](CCC(N)=O)NC(=O)[C@@H](NC(=O)[C@H](C)NC(=O)[C@@H]1CSSC[C@H](NC(=O)[C@H](CCCCN)NC(=O)[C@H](CCCNC(=N)N)NC(=O)CC[C@H](NC(=O)CCCCCCCCCCCCCCCCCCC(=O)O)C(=O)O)C(=O)N[C@@H](CC(N)=O)C(=O)N[C@@H]([C@@H](C)O)C(=O)N[C@@H](C)C(=O)N[C@@H]([C@@H](C)O)C(=O)N1)[C@@H](C)O)C(=O)N[C@@H](CC(C)C)C(=O)N1CCC[C@H]1C(=O)N1CCC[C@H]1C(=O)N[C@H](C(=O)N[C@@H](CC(N)=O)C(=O)N[C@H](C(=O)NCC(=O)N[C@@H](CO)C(=O)N[C@@H](CC(N)=O)C(=O)N[C@H](C(=O)N[C@@H](Cc1ccc(O)cc1)C(N)=O)[C@@H](C)O)C(C)C)[C@@H](C)O` [Example 19, N-alpha-[(S)-4-Carboxy-4-(19-carboxynonadecanoylamino)butyryl]-Arg-[Ala17]-pramlintide] ({C20 diacid-γGlu}-RKCNTATCATQRLANFLAHSSNNFGPILPPTNVGSNTY-NH2; disulfide 3-8) is 0.1 nM; for `CC[C@H](C)[C@H](NC(=O)[C@@H]1CCCN1C(=O)CNC(=O)[C@H](Cc1ccccc1)NC(=O)[C@H](CC(N)=O)NC(=O)[C@H](CC(N)=O)NC(=O)[C@H](CO)NC(=O)[C@H](CO)NC(=O)[C@H](Cc1c[nH]cn1)NC(=O)[C@@H]1CCCN1C(=O)[C@H](CC(C)C)NC(=O)[C@H](Cc1ccccc1)NC(=O)[C@H](CC(N)=O)NC(=O)[C@H](C)NC(=O)[C@H](CC(C)C)NC(=O)[C@H](CCCNC(=N)N)NC(=O)[C@H](CCC(N)=O)NC(=O)[C@@H](NC(=O)[C@H](C)NC(=O)[C@@H]1CSSC[C@H](NC(=O)[C@H](CCCCN)NC(=O)[C@H](CCCNC(=N)N)NC(=O)CC[C@H](NC(=O)CCCCCCCCCCCCCCCCCCC(=O)O)C(=O)O)C(=O)N[C@@H](CC(N)=O)C(=O)N[C@@H]([C@@H](C)O)C(=O)N[C@@H](C)C(=O)N[C@@H]([C@@H](C)O)C(=O)N1)[C@@H](C)O)C(=O)N[C@@H](CC(C)C)C(=O)N1CCC[C@H]1C(=O)N1CCC[C@H]1C(=O)N[C@H](C(=O)N[C@@H](CC(N)=O)C(=O)N[C@H](C(=O)NCC(=O)N[C@@H](CO)C(=O)N[C@@H](CC(N)=O)C(=O)N[C@H](C(=O)N[C@@H](Cc1ccc(O)cc1)C(N)=O)[C@@H](C)O)C(C)C)[C@@H](C)O` [Example 21, N-alpha-[(S)-4-Carboxy-4-(19-carboxynonadecanoylamino)butyryl]-Arg-[Pro17]-pramlintide] ({C20 diacid-γGlu}-RKCNTATCATQRLANFLPHSSNNFGPILPPTNVGSNTY-NH2; disulfide 3-8) it is 2 nM; for `CC[C@H](C)[C@H](NC(=O)[C@@H]1CCCN1C(=O)CNC(=O)[C@H](Cc1ccccc1)NC(=O)[C@H](CC(N)=O)NC(=O)[C@H](CC(N)=O)NC(=O)[C@H](CO)NC(=O)[C@H](CO)NC(=O)[C@H](Cc1c[nH]cn1)NC(=O)[C@H](C)NC(=O)[C@H](CC(C)C)NC(=O)[C@H](Cc1ccccc1)NC(=O)[C@H](CC(N)=O)NC(=O)[C@H](C)NC(=O)[C@H](CC(C)C)NC(=O)[C@H](CCCNC(=N)N)NC(=O)[C@H](CCC(N)=O)NC(=O)[C@@H](NC(=O)[C@H](C)NC(=O)[C@@H]1CSSC[C@H](NC(=O)[C@H](CCCCN)NC(=O)[C@H](CCCNC(=N)N)NC(=O)COCCOCCNC(=O)CC[C@H](NC(=O)CCCCCCCCCCCCCCCCCCC(=O)O)C(=O)O)C(=O)N[C@@H](CC(N)=O)C(=O)N[C@@H]([C@@H](C)O)C(=O)N[C@@H](C)C(=O)N[C@@H]([C@@H](C)O)C(=O)N1)[C@@H](C)O)C(=O)N[C@@H](CC(C)C)C(=O)N1CCC[C@H]1C(=O)N1CCC[C@H]1C(=O)N[C@H](C(=O)N[C@@H](CC(N)=O)C(=O)N[C@H](C(=O)NCC(=O)N[C@@H](CO)C(=O)N[C@@H](CC(N)=O)C(=O)N[C@H](C(=O)N[C@@H](Cc1ccc(O)cc1)C(N)=O)[C@@H](C)O)C(C)C)[C@@H](C)O` [Example 24, N-alpha-[2-(2-{2-[4-(S)-Carboxy-4-(19-carboxynonadecanoylamino)butyrylamino]ethoxy}ethoxy)acetyl]-Arg-[Ala17]-pramlintide] ({C20 diacid-γGlu-AEEA}-RKCNTATCATQRLANFLAHSSNNFGPILPPTNVGSNTY-NH2; disulfide 3-8) it is 0.08 nM.

The record behind these values is patent US8895504B2, “Amylin derivatives” (priority 2008, dated 2014).
